The results in this text go back to patent US20090306080A1, “VETERINARY FORMULATION” (priority 2006, published 2009).

The data set is classed as physicochemical. The settings on record: pH 7. The source says:
The solubility of cyromazine in a range of organic solvents including solvents which are commonly used in topical spray-on formulations is shown in the table below.

As to `Nc1nc(N)nc(NC2CC2)n1` [cyromazine, 2-cyclopropyl-amino-4,6-diamino-s-triazine], the “Solubility (g/kg) at 20° C.” value is listed as 1.3 (pH 7) g/kg.
